From patent publication US20140155397A1, “EMT SIGNATURES AND PREDICTIVE MARKERS AND METHOD OF USING THE SAME” (Board of Regents, priority 2011, published 2014)

Experiments:
[1] = test system: H157; test: Proliferation, CellTiter-Glo Luminescent Cell Viability; format: cell-based; details: single agent
Description: (§1) Average values were used for analysis as described. […] Chou T. C., et al., Quantitative Analysis of Dose-Effect Relationships: The Combined Effects of Multiple Drugs or Enzyme Inhibitors. Adv Enzyme Regul.

[2] = test system: H1299; test: as above; format: cell-based; details: single agent
Description: as §1

[3] = test system: A549; test: as above; format: cell-based; details: single agent
Description: as §1

[4] = test system: H460; test: as above; format: cell-based; details: single agent
Description: as §1

[5] = test system: H2882; test: as above; format: cell-based; details: single agent
Description: as §1

[6] = test system: Calu-1; test: as above; format: cell-based; details: single agent
Description: as §1

[7] = biological target: T1, MER (Homo sapiens, UniProt Q12866); test: Protein kinase panel; format: biochemical
T1 sequence (Q12866 21-999): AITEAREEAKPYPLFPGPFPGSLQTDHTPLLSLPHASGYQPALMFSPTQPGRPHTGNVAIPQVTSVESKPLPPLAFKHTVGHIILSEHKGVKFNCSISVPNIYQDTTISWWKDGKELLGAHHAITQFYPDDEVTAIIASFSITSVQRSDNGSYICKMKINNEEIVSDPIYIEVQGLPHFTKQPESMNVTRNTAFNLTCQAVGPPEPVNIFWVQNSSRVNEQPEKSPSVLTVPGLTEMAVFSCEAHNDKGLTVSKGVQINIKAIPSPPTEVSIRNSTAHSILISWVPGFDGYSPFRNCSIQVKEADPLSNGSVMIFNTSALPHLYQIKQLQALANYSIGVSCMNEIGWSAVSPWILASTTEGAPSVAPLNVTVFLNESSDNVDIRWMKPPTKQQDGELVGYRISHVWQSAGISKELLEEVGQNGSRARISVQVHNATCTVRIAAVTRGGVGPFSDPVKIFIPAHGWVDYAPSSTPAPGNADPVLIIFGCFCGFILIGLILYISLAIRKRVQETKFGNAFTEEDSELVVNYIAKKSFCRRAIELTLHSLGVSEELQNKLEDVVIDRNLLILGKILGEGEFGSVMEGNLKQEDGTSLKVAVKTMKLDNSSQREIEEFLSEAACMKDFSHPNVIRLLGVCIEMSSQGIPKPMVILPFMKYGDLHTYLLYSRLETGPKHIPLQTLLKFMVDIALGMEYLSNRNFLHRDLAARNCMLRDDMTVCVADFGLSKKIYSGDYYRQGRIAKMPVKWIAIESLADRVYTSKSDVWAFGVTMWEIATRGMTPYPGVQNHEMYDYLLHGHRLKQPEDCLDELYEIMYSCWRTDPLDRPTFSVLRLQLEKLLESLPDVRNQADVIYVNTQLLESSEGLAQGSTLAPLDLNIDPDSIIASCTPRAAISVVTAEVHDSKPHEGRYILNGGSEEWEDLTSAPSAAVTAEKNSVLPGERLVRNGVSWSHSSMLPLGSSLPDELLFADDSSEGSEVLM
Description: (§2) Purified recombinant AXL kinase was used to screen a library of structures with appropriate drug-like scaffolds to identify potential inhibitors. Hits from the screen were confirmed and r analyzed by selection criteria including Lipinski rules. One pyrrolopyrimidine-based compound was selected for structure-activity relationship efforts. Optimization of this scaffold and subsequent evaluation led to the generation of compound SG1-7079 as the lead candidate inhibitor (FIG. 10). […] SGI-7079 was screened against a panel of protein kinases to determine both selectivity and biochemical potency.

[8] = biological target: T2, AXL (Homo sapiens, UniProt P30530); test: Gas6 ligand-induced tyrosine phosphorylation of human AXL expressed in HEK293T cells; format: cell-based; design: expressed in transfected cells; host or cells: HEK293T; details: read-out: EC50, inhibition of Gas6 ligand-induced tyrosine phosphorylation of AXL
T2 sequence (P30530 26-894): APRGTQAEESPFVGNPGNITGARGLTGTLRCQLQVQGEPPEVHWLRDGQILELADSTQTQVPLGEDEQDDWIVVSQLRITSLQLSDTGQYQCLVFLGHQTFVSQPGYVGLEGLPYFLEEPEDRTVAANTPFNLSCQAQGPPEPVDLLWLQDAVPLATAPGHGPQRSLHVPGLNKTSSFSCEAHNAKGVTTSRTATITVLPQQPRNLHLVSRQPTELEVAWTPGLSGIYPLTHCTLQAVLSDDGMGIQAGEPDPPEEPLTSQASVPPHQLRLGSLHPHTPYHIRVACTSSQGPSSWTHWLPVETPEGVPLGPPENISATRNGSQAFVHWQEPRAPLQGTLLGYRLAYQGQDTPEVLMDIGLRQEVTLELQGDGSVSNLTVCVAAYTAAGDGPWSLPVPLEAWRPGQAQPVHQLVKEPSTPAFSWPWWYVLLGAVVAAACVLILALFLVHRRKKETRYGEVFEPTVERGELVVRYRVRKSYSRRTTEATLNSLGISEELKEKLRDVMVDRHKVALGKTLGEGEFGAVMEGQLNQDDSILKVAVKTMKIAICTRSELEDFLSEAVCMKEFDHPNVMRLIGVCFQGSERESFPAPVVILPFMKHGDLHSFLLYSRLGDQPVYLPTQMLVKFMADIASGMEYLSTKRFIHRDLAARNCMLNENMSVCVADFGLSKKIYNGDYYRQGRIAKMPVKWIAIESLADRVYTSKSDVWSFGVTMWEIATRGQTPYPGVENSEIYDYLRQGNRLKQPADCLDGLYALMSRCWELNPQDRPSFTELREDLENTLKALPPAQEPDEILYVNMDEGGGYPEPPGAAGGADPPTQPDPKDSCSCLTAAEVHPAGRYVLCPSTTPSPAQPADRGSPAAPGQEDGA

[9] = test system: NSCLC cell lines; test: Drug sensitivity (growth inhibition, MTS assay) of epithelial versus mesenchymal NSCLC cell lines; format: cell-based
Description: as §1
The EMT signature was derived in 54 DNA fingerprinted NSCLC cell lines profiled on Affymetrix U133A, B, and Plus2.0 arrays and tested on the Illumina WGv2 and WGv3 platforms and in an independent set of head and neck cancer lines (HNC). E-cadherin and other protein levels were quantified by reverse phase protein array and correlated with the first principal component of the EMT signature. IC50s were determined for NSCLC cell lines by MTS assay. Response to erlotinib was evaluated in patients treated in the BATTLE clinical trial using eight-week disease […] and progression free survival.

[10] = biological target: T2, AXL; test: Inhibition of purified recombinant AXL kinase; format: biochemical
Description: as §2

SMILES: Cc1c[nH]c2nc(Nc3ccc(N4CCN(C)CC4)c(F)c3)nc(-c3cccc(CC#N)c3)c12 [SGI-7079]
- IC50 [1]: 740 nM
- IC50 [2]: 1740 nM
- IC50 [3]: 920 nM
- IC50 [4]: 2010 nM
- IC50 [5]: 4290 nM
- IC50 [6]: 2440 nM
- Inhibition of MER [7]: similarly as AXL
- EC50 [8]: 100 nM
- Sensitivity of mesenchymal cells ([9]; SGI-7079 versus erlotinib, p<0.001 by Wilcoxon test): relatively sensitive
- Fold more sensitive, mesenchymal versus epithelial cells ([9]; p-value 0.17, not statistically significant): 1.3 fold
- Ki [10]: 5.7 nM
